Reference: ChEMBL document CHEMBL3046250, “Synthesis and anticonvulsant evaluation of 3-substituted-4-(4-hexyloxyphenyl)-4H-1,2,4-triazoles” (Med Chem Res, 2009)

How the values were obtained:
Mus musculus [1] = assay: Anticonvulsant activity in ip dosed Mus musculus C57B/6 (mouse) assessed as protection against maximal electroshock-induced seizures; format: functional; conditions: C57B/6, ip
[2] = Neurotoxicity in Mus musculus (mouse) by rotarod test; format: toxicity, organism-based; conditions: in vivo
[3] = Protective index, ratio of TD50 for neurotoxicity to ED50 for anticonvulsant activity in ip dosed Mus musculus C57B/6 (mouse); format: toxicity, organism-based; conditions: in vivo, read-out: Ratio TD50/ED50
[4] = Neurotoxicity in ip dosed Mus musculus C57B/6 (mouse) assessed as inability to maintain equilibrium measured after 30 min by rotarod test; format: toxicity, organism-based; conditions: in vivo
Mus musculus [5] = assay: Anticonvulsant activity in Mus musculus (mouse) assessed protection against subcutaneous pentylenetetrazole-induced seizures; format: functional; conditions: sc

Structure (SMILES)	ED50 (Mus musculus [1]) [mg/kg]	TD50 [2] [mg/kg]	selectivity ratio [3]	TD50 at 0.5 h [4] [mg/kg]	ED50 (Mus musculus [5]) [mg/kg]
CCCCCCOc1ccc(-n2cnnc2CCCCCC)cc1	> 40				
O=C1CCc2cc(OCc3ccccc3)ccc2N1		> 300			
CCCCCCOc1ccc(-n2cnnc2CCc2ccccc2)cc1	27.4		5.7	158	
CCCCCCOc1ccc(-n2cnnc2C)cc1	22.8		4.9	114	
CCCCCCOc1ccc(-n2cnnc2-c2ccccc2)cc1	19		7.2	137	
CCCCCCOc1ccc(-n2cnnc2CCCC)cc1	13.6		8.1	110	
CCCCCCCc1nncn1-c1ccc(OCCCCCC)cc1	> 40				
CCCCCCOc1ccc(-n2cnnc2-c2ccc(Cl)cc2)cc1	19.7		6.9	137	
CCCCCCOc1ccc(-n2cnnc2-c2cccc(F)c2)cc1	27.4		3.8	104	
c1ccc(COc2ccc3c(c2)CCc2nncn2-3)cc1					24
CCCCCCOc1ccc(-n2cnnc2Cc2ccccc2)cc1	19		6.9	131	
CCCCCCOc1ccc(-n2cnnc2CCCCC)cc1	32.8		5.8	189	
CCCCCCOc1ccc(-n2cnnc2-c2ccccc2F)cc1	20.2		5	101	
CCCCCCOc1ccc(-n2cnnc2-c2ccccc2Cl)cc1	13.2		6.9	91.2	
CCCCCCOc1ccc(-n2cnnc2-c2ccc(OC)cc2)cc1	15.8		7.6	120	
CCCCCCOc1ccc(-n2cnnc2CCC)cc1	5.7		11.5	65.7	
CCCCCCOc1ccc(-n2cnnc2)cc1	9.8		11.4	112	
CCCCCCOc1ccc(-n2cnnc2-c2ccc(F)cc2)cc1	22		4.2	91.3	
CCCCCCOc1ccc(-n2cnnc2CC)cc1			4.7		
CCCCCCOc1ccc(-n2cnnc2-c2ccc(C)cc2)cc1	11.4		8.8	101	
CCCCCCCCCc1nncn1-c1ccc(OCCCCCC)cc1	> 40				
CCCCCCOc1ccc2c(c1)CCc1nncn1-2			2.2		
